Measurements: the NIST ThermoML archive (doi:10.1007/s10765-010-0768-y)
Numbers after ± are expanded uncertainties.

Assay: xn = mol fraction of the nth substance listed
Details: 101 kPa, Liquid, Pycnometric method

In the case of `C=CC(=O)OCCCC` [butyl 2-propenoate] + Cc1ccccc1, the mass density (288.15 K, x1 = 0.0704) is reported as 875.4 ± 0.21 kg/m3, the mass density (288.15 K, x1 = 0.1402) is reported as 878.72 ± 0.22 kg/m3 and the mass density (288.15 K, x1 = 0.2054) is reported as 881.63 ± 0.22 kg/m3. The mass density (288.15 K, x1 = 0.2799) was 884.72 ± 0.22 kg/m3, the mass density (288.15 K, x1 = 0.3604) was 887.81 ± 0.23 kg/m3 and the mass density (288.15 K, x1 = 0.4338) was 890.4 ± 0.23 kg/m3. For the same compound, the mass density (288.15 K, x1 = 0.5098) was 892.88 ± 0.24 kg/m3, the mass density (288.15 K, x1 = 0.5836) was 895.08 ± 0.24 kg/m3 and the mass density (288.15 K, x1 = 0.6584) was 897.1 ± 0.25 kg/m3. The mass density (288.15 K, x1 = 0.7198) was 898.6 ± 0.25 kg/m3, the mass density (288.15 K, x1 = 0.7912) was 900.18 ± 0.26 kg/m3 and the mass density (288.15 K, x1 = 0.8578) was 901.48 ± 0.26 kg/m3. The mass density (288.15 K, x1 = 0.9324) was 902.74 ± 0.27 kg/m3, the mass density (288.15 K, x1 = 1) was 903.6 ± 0.27 kg/m3 and the mass density (293.15 K, x1 = 0.0704) was 870.63 ± 0.2 kg/m3. It also gave a mass density (293.15 K, x1 = 0.1402) of 873.92 ± 0.21 kg/m3, a mass density (293.15 K, x1 = 0.2054) of 876.8 ± 0.21 kg/m3 and a mass density (293.15 K, x1 = 0.2799) of 879.86 ± 0.21 kg/m3. The mass density (293.15 K, x1 = 0.3604) was 882.94 ± 0.22 kg/m3, the mass density (293.15 K, x1 = 0.4338) was 885.52 ± 0.22 kg/m3 and the mass density (293.15 K, x1 = 0.5098) was 888 ± 0.22 kg/m3. For the same compound, the mass density (293.15 K, x1 = 0.5836) was 890.19 ± 0.23 kg/m3, the mass density (293.15 K, x1 = 0.6584) was 892.22 ± 0.23 kg/m3 and the mass density (293.15 K, x1 = 0.7198) was 893.73 ± 0.24 kg/m3. For the same compound, the mass density (293.15 K, x1 = 0.7912) was 895.32 ± 0.24 kg/m3, the mass density (293.15 K, x1 = 0.8578) was 896.64 ± 0.25 kg/m3 and the mass density (293.15 K, x1 = 0.9324) was 897.93 ± 0.25 kg/m3. It also gave a mass density (293.15 K, x1 = 1) of 898.85 ± 0.26 kg/m3, a mass density (298.15 K, x1 = 0.0704) of 865.86 ± 0.21 kg/m3 and a mass density (298.15 K, x1 = 0.1402) of 869.12 ± 0.22 kg/m3. For the same compound, the mass density (298.15 K, x1 = 0.2054) was 871.97 ± 0.22 kg/m3, the mass density (298.15 K, x1 = 0.2799) was 875 ± 0.22 kg/m3 and the mass density (298.15 K, x1 = 0.3604) was 878.07 ± 0.23 kg/m3. It also gave a mass density (298.15 K, x1 = 0.4338) of 880.64 ± 0.23 kg/m3, a mass density (298.15 K, x1 = 0.5098) of 883.12 ± 0.23 kg/m3 and a mass density (298.15 K, x1 = 0.5836) of 885.31 ± 0.24 kg/m3. It also gave a mass density (298.15 K, x1 = 0.6584) of 887.34 ± 0.24 kg/m3, a mass density (298.15 K, x1 = 0.7198) of 888.86 ± 0.25 kg/m3 and a mass density (298.15 K, x1 = 0.7912) of 890.46 ± 0.25 kg/m3. For the same compound, the mass density (298.15 K, x1 = 0.8578) was 891.8 ± 0.26 kg/m3, the mass density (298.15 K, x1 = 0.9324) was 893.12 ± 0.26 kg/m3 and the mass density (298.15 K, x1 = 1) was 894.1 ± 0.27 kg/m3. For the same compound, the mass density (303.15 K, x1 = 0.0704) was 861.09 ± 0.22 kg/m3, the mass density (303.15 K, x1 = 0.1402) was 864.32 ± 0.23 kg/m3 and the mass density (303.15 K, x1 = 0.2054) was 867.14 ± 0.23 kg/m3. It also gave a mass density (303.15 K, x1 = 0.2799) of 870.15 ± 0.23 kg/m3, a mass density (303.15 K, x1 = 0.3604) of 873.2 ± 0.24 kg/m3 and a mass density (303.15 K, x1 = 0.4338) of 875.77 ± 0.24 kg/m3. It also gave a mass density (303.15 K, x1 = 0.5098) of 878.24 ± 0.24 kg/m3, a mass density (303.15 K, x1 = 0.5836) of 880.43 ± 0.25 kg/m3 and a mass density (303.15 K, x1 = 0.6584) of 882.46 ± 0.25 kg/m3. It also gave a mass density (303.15 K, x1 = 0.7198) of 883.99 ± 0.26 kg/m3, a mass density (303.15 K, x1 = 0.7912) of 885.6 ± 0.26 kg/m3 and a mass density (303.15 K, x1 = 0.8578) of 886.96 ± 0.27 kg/m3. For the same compound, the mass density (303.15 K, x1 = 0.9324) was 888.31 ± 0.27 kg/m3, the mass density (303.15 K, x1 = 1) was 889.35 ± 0.28 kg/m3 and the mass density (308.15 K, x1 = 0.0704) was 856.32 ± 0.23 kg/m3. The mass density (308.15 K, x1 = 0.1402) was 859.52 ± 0.24 kg/m3, the mass density (308.15 K, x1 = 0.2054) was 862.31 ± 0.24 kg/m3 and the mass density (308.15 K, x1 = 0.2799) was 865.31 ± 0.24 kg/m3. It also gave a mass density (308.15 K, x1 = 0.3604) of 868.34 ± 0.25 kg/m3, a mass density (308.15 K, x1 = 0.4338) of 870.9 ± 0.25 kg/m3 and a mass density (308.15 K, x1 = 0.5098) of 873.36 ± 0.25 kg/m3. For the same compound, the mass density (308.15 K, x1 = 0.5836) was 875.55 ± 0.26 kg/m3, the mass density (308.15 K, x1 = 0.6584) was 877.58 ± 0.26 kg/m3 and the mass density (308.15 K, x1 = 0.7198) was 879.12 ± 0.27 kg/m3. It also gave a mass density (308.15 K, x1 = 0.7912) of 880.75 ± 0.27 kg/m3, a mass density (308.15 K, x1 = 0.8578) of 882.12 ± 0.28 kg/m3 and a mass density (308.15 K, x1 = 0.9324) of 883.5 ± 0.28 kg/m3. It also gave a mass density (308.15 K, x1 = 1) of 884.6 ± 0.29 kg/m3, a mass density (313.15 K, x1 = 0.0704) of 851.55 ± 0.24 kg/m3 and a mass density (313.15 K, x1 = 0.1402) of 854.72 ± 0.25 kg/m3. For the same compound, the mass density (313.15 K, x1 = 0.2054) was 857.48 ± 0.25 kg/m3, the mass density (313.15 K, x1 = 0.2799) was 860.47 ± 0.25 kg/m3 and the mass density (313.15 K, x1 = 0.3604) was 863.48 ± 0.26 kg/m3. It also gave a mass density (313.15 K, x1 = 0.4338) of 866.03 ± 0.26 kg/m3, a mass density (313.15 K, x1 = 0.5098) of 868.48 ± 0.26 kg/m3 and a mass density (313.15 K, x1 = 0.5836) of 870.67 ± 0.27 kg/m3. It also gave a mass density (313.15 K, x1 = 0.6584) of 872.7 ± 0.27 kg/m3, a mass density (313.15 K, x1 = 0.7198) of 874.25 ± 0.28 kg/m3 and a mass density (313.15 K, x1 = 0.7912) of 875.9 ± 0.28 kg/m3. The mass density (313.15 K, x1 = 0.8578) was 877.28 ± 0.29 kg/m3, the mass density (313.15 K, x1 = 0.9324) was 878.69 ± 0.29 kg/m3 and the mass density (313.15 K, x1 = 1) was 879.85 ± 0.3 kg/m3. The mass density (318.15 K, x1 = 0.0704) was 846.79 ± 0.25 kg/m3, the mass density (318.15 K, x1 = 0.1402) was 849.92 ± 0.26 kg/m3 and the mass density (318.15 K, x1 = 0.2054) was 852.65 ± 0.26 kg/m3. For the same compound, the mass density (318.15 K, x1 = 0.2799) was 855.63 ± 0.26 kg/m3, the mass density (318.15 K, x1 = 0.3604) was 858.62 ± 0.27 kg/m3 and the mass density (318.15 K, x1 = 0.4338) was 861.16 ± 0.27 kg/m3. For the same compound, the mass density (318.15 K, x1 = 0.5098) was 863.6 ± 0.27 kg/m3, the mass density (318.15 K, x1 = 0.5836) was 865.79 ± 0.28 kg/m3 and the mass density (318.15 K, x1 = 0.6584) was 867.82 ± 0.28 kg/m3. The mass density (318.15 K, x1 = 0.7198) was 869.38 ± 0.29 kg/m3, the mass density (318.15 K, x1 = 0.7912) was 871.05 ± 0.29 kg/m3 and the mass density (318.15 K, x1 = 0.8578) was 872.44 ± 0.3 kg/m3. It also gave a mass density (318.15 K, x1 = 0.9324) of 873.88 ± 0.3 kg/m3 and a mass density (318.15 K, x1 = 1) of 875.1 ± 0.31 kg/m3.
